# Laboratory results from PMC9321231.
# Read-outs that look alike come from different tables or passages of the source.
# Legend:
# [1] = target: T1, human neutrophil elastase (HNE) (Homo sapiens, UniProt P08246); experiment: Kinetic analysis of the inhibition of human neutrophil elastase (Lineweaver-Burk, Dixon, secondary plots); assay type: biochemical; conditions: for Inhibition Type: Lineweaver-Burk and Dixon analysis; for Kis (enzyme-substrate-inhibitor dissociation constant): secondary plot of intercept versus inhibitor concentration; for Ki: secondary plot of slope versus inhibitor concentration, read-out: Ki (enzyme-inhibitor dissociation constant)
# T1 sequence (P08246 30-267): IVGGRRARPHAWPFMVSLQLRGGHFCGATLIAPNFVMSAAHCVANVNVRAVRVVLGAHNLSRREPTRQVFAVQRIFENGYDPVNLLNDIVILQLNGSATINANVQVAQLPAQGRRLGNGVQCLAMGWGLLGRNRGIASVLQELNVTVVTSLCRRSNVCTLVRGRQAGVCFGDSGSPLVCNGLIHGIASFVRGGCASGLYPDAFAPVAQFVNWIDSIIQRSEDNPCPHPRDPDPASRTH
# Experimental: Next, kinetic analysis of the mechanism of inhibition of human neutrophil elastase by thiazoles 3a–3j was determined using double-reciprocal plots of Lineweaver-Burk plots and Dixon analysis.
# The first model is one in which the inhibitor binds better to the free enzyme (competitive mechanism), while the second model is one in which the inhibitor binds better to the enzyme-substrate complex (non-competitive mechanism). Next the secondary plots of slope versus concentration of test compounds were plotted to determine the enzyme-inhibitor dissociation constants Ki, and similarly as was used to determine enzyme-substrate-inhibitor dissociation constants Kis, the secondary plots of intercept versus concentration of tested compounds were plotted.
# Kinetic studies were conducted in the presence of different concentrations of substrate (5, 25, 50 and 100 µM) and test compounds (in the range of 0–500 nM). The reaction conditions were the same as in the HNE inhibition assay and the reaction was monitored for 10 min at 25 °C with the same Ex an Em wavelengths. By Lineweaver–Burk plots, kinetic values such as the Michaelis–Menten constants and maximum velocity were determined. Next, two inhibition constants for inhibitor binding with free enzyme or enzyme–substrate complex (Ki and Kis) were obtained by plotting the secondary plot of the slopes of the determined straight lines or vertical intercept (1/Vmax) versus inhibitor concentration.
# [2] = test system: human biphenotypic B myelomonocytic leukemia (MV4-11) cells; experiment: Antiproliferative assay (MTT or SRB), MV4-11; assay type: cell-based; conditions: for IC50: MV-4-11, read-out: IC50 ± SD, antiproliferative activity; for Calculated Selectivity Index SI: IC50 Balb/3T3 / IC50 MV-4-11
# Experimental: (§1) Cell preparation, an in vitro antiproliferative assay, and MTT and SRB cytotoxic tests were performed according to the literature.
# [3] = test system: lung carcinoma (A549) cells; experiment: Antiproliferative assay (MTT or SRB), A549; assay type: cell-based, human; conditions: for IC50: A-549, read-out: IC50 ± SD, antiproliferative activity; for Calculated Selectivity Index SI: IC50 Balb/3T3 / IC50 A-549
# Experimental: as §1
# [4] = test system: human breast adenocarcinoma (MDA-MB-231) cells; experiment: Antiproliferative assay (MTT or SRB), MDA-MB-231; assay type: cell-based; conditions: for IC50: MDA-MB-231, read-out: IC50 ± SD, antiproliferative activity; for Calculated Selectivity Index SI: IC50 Balb/3T3 / IC50 MDA-MB-231
# Experimental: as §1
# [5] = test system: urinary bladder carcinoma (UMUC-3) cells; experiment: Antiproliferative assay (MTT or SRB), UMUC-3; assay type: cell-based, human; conditions: for IC50: UMUC-3, read-out: IC50 ± SD, antiproliferative activity; for Calculated Selectivity Index SI: IC50 Balb/3T3 / IC50 UMUC-3
# Experimental: as §1
# [6] = test system: normal mouse fibroblast (BALB/3T3) cells; experiment: Antiproliferative assay (MTT or SRB), normal fibroblasts BALB/3T3; assay type: cell-based; conditions: Balb/3T3 normal mouse fibroblasts; read-out: IC50 ± SD, antiproliferative activity
# Experimental: Anticancer drugs are toxic to cancer cells, but also show some toxicity to healthy cells. […] The selectivity indexes for thiazoles 3a–3j against MV4-11 and A-549 cells were in general much higher than for MDA-MB-231 and UMUC-3 cells.
# as §1
# [7] = target: T1, human neutrophil elastase (HNE); experiment: Human neutrophil elastase inhibition assay (spectrofluorimetric, MeOSuc-AAPV-AMC substrate)
# Experimental: The inhibition of human neutrophil elastase was carried out by the spectrofluorimetric method using N-methoxysuccinyl-Ala-Ala-Pro-Val-7-amido-4-methylcoumarin (MeOSuc-AAPV-AMC) as substrate.
SMILES,Inhibition Type [1],Kis (enzyme-substrate-inhibitor dissociation constant) [1] [nM],Ki [1] [µM],"IC50 ([2]; Homo sapiens, MV4-11) [µM]",Calculated Selectivity Index SI [2],"IC50 ([3]; Homo sapiens, A549) [µM]",Calculated Selectivity Index SI [3],IC50 ([4]; Homo sapiens) [µM],Calculated Selectivity Index SI [4],"IC50 ([5]; Homo sapiens, UMUC3) [µM]",Calculated Selectivity Index SI [5],IC50 [6] [µM],melting point [°C],IC50 [7] [µM],IC50 [2] [µM],IC50 [3] [µM],IC50 [4] [µM],IC50 [5] [µM]
"CCC1(CC)C(=O)N(c2ccc(-c3csc(Nc4ccc(Cl)cc4)n3)cc2)C1=O [3a, 1-(4-(2-(4-Chlorophenylamino)thiazol-4-yl)phenyl)-3,3-diethylazetidine-2,4-dione]",mixed,426.00,0.59,7.15 ± 0.94,1.52,7.01 ± 0.47,1.55,9.86 ± 0.94,1.10,10.7 ± 1.41,1.02,10.9 ± 1.18,164 to 166,0.227 ± 0.0351,–,–,–,–
"CCC1(CC)C(=O)N(c2ccc(-c3csc(Nc4ccc(F)cc4)n3)cc2)C1=O [3b, 3,3-Diethyl-1-(4-(2-(4-fluorophenylamino)thiazol-4-yl)phenyl)azetidine-2,4-dione]",mixed,65.50,0.0722,5.92 ± 1.71,1.94,7.31 ± 0.46,1.57,9.34 ± 1.12,1.23,9.07 ± 0.49,1.27,11.5 ± 1.47,155 to 157,0.176 ± 0.0135,–,–,–,–
"CCC1(CC)C(=O)N(c2ccc(-c3csc(Nc4c(F)c(F)c(F)c(F)c4F)n3)cc2)C1=O [3d, 3,3-Diethyl-1-(4-(2-(perfluorophenylamino)thiazol-4-yl)phenyl)azetidine-2,4-dione]",mixed,49.33,0.138,5.4 ± 2.06,8.61,15.3 ± 4.98,3.04,72.1 ± 26,0.64,62.7 ± 9.98,0.74,46.5 ± 4.99,162 to 164,0.11 ± 0.00441,–,–,–,–
"CCC1(CC)C(=O)N(c2ccc(-c3csc(Nc4cc(C)cc(C)c4)n3)cc2)C1=O [3f, 1-(4-(2-(3,5-Dimethylphenylamino)thiazol-4-yl)phenyl)-3,3-diethylazetidine-2,4-dione]",mixed type I inhibition,426.00,0.144,5.89 ± 1.67,4.04,7.28 ± 1.07,3.27,12.5 ± 1.79,1.90,19.7 ± 5.49,1.21,23.8 ± 4.53,140 to 143,0.244 ± 0.0194,–,–,–,–
"CCC1(CC)C(=O)N(c2ccc(-c3csc(Nc4ccc5[nH]ncc5c4)n3)cc2)C1=O [3g, 1-(4-(2-(1H-Indazol-5-ylamino)thiazol-4-yl)phenyl)-3,3-diethylazetidine-2,4-dione]",mixed type I inhibition,171.25,0.137,5.38 ± 0.46,1.12,5.59 ± 0.16,1.08,6.19 ± 0.42,0.97,7.89 ± 0.23,0.76,6.03 ± 0.46,186 to 188,0.312 ± 0.00576,–,–,–,–
"CCC1(CC)C(=O)N(c2ccc(-c3csc(Nc4cccc5ccccc45)n3)cc2)C1=O [3h, 3,3-Diethyl-1-(4-(2-(naphthalen-1-ylamino)thiazol-4-yl)phenyl)azetidine-2,4-dione]",mixed type I inhibition,46.50,0.0339,6.64 ± 1.59,3.38,9.2 ± 1.36,2.44,14.6 ± 3.17,1.53,13.3 ± 1.81,1.69,22.4 ± 8.62,69 to 71,0.0446 ± 0.00604,–,–,–,–
"CCC1(CC)C(=O)N(c2ccc(-c3csc(Nc4ccc(C(F)(F)F)cc4)n3)cc2)C1=O [3i, 3,3-Diethyl-1-(4-(2-(4-(trifluoromethyl)phenylamino)thiazol-4-yl)phenyl)-azetidine-2,4-dione]",mixed,425.00,0.597,5.47 ± 1.52,1.85,6.42 ± 0.72,1.58,11.7 ± 3.7,0.87,10.7 ± 3.05,0.95,10.1 ± 0.87,170 to 172,0.168 ± 0.0181,–,–,–,–
"CCC1(CC)C(=O)N(c2ccc(-c3csc(Nc4c(Cl)cc(Cl)cc4Cl)n3)cc2)C1=O [3j, 3,3-Diethyl-1-(4-(2-(2,4,6-trichlorophenylamino)thiazol-4-yl)phenyl)azetidine-2,4-dione]",mixed,38.00,0.209,5.11 ± 1.42,6.75,6.21 ± 0.73,5.55,14.3 ± 3.45,2.41,25.3 ± 9.94,1.36,34.5 ± 22.7,78 to 80,0.249 ± 0.0328,–,–,–,–
"N.N.[Cl][Pt][Cl] [cisplatin, reference compound]",–,–,–,–,–,–,–,–,–,–,–,8.04 ± 3.16,–,–,1.33 ± 0.17,4.09 ± 1,19.4 ± 6.8,1.73 ± 0.17
